Test results as given in ChEMBL document CHEMBL1154916, “Insight into binding of phosphodiesterase-9A selective inhibitors by crystal structures and mutagenesis” (J Med Chem, 2010).

Columns and labels:
[1] = Inhibition of PDE9
[2] = molecular target: High affinity cGMP-specific 3',5'-cyclic phosphodiesterase 9A (Homo sapiens, UniProt O76083); experiment: Inhibition of human PDE9A expressed in Escherichia coli BL21 by liquid scintillation counting
High affinity cGMP-specific 3',5'-cyclic phosphodiesterase 9A, sequence (O76083 whole entry): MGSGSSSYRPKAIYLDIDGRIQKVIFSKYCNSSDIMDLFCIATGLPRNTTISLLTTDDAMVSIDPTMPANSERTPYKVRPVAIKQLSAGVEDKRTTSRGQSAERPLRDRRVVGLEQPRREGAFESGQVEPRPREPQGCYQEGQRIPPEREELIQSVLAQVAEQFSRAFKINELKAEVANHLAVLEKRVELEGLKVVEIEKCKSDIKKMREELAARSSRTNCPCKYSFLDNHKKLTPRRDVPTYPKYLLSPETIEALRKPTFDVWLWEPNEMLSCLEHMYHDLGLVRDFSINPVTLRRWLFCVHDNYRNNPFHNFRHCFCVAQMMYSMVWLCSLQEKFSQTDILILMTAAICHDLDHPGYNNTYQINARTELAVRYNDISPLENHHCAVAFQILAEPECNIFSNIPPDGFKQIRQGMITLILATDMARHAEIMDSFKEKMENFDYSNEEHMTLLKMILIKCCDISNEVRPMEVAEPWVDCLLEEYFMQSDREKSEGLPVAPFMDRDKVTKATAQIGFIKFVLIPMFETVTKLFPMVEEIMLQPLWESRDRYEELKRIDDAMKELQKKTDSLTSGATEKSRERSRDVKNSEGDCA

IC50 [1] | IC50 [2] | SMILES
55 nM | – | C[C@H](Cc1nc2c(cnn2-c2ccccc2Cl)c(=O)[nH]1)C(F)(F)F
– | > 200000 nM | CC(C)Cn1c(=O)n(C)c(=O)c2[nH]cnc21 [ISOBUTYLMETHYLXANTHINE]
